Data as given in PubChem BioAssay (NCI).
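All cell lines were grown in 96-well plates and treated with compound for 48 hours. Abbreviation: GI50, concentration required for 50% inhibition of growth. TGI denotes the concentration required for complete inhibition of growth.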

Assays:
Test in all cases: inhibition of tumour cell growth, NCI panel, 48 h
[1] = test system: ACHN renal
[2] = test system: HCT-116 colon
[3] = test system: IGROV1 ovarian
[4] = test system: OVCAR-5 ovarian
[5] = test system: RPMI-8226 leukemia
[6] = test system: SK-OV-3 ovarian
[7] = test system: SNB-75 CNS
[8] = test system: COLO 205 colon
[9] = test system: DU-145 prostate
[10] = test system: NCI/ADR-RES ovarian

| SMILES | TGI [1] [µM] | TGI [2] [µM] | TGI [3] [µM] | TGI [4] [µM] | TGI [5] [µM] | TGI [6] [µM] | TGI [7] [µM] | GI50 [1] [µM] | GI50 [8] [µM] | TGI [8] [µM] | GI50 [9] [µM] | TGI [9] [µM] | GI50 [2] [µM] | GI50 [3] [µM] | GI50 [10] [µM] | TGI [10] [µM] | GI50 [4] [µM] | GI50 [5] [µM] | GI50 [6] [µM] | GI50 [7] [µM] |
| --- | --- | --- | --- | --- | --- | --- | --- | --- | --- | --- | --- | --- | --- | --- | --- | --- | --- | --- | --- | --- |
| C[C@]12CCC(=O)C=C1CC[C@@H]1C2CC[C@]2(C)Nc3[nH]ncc3CC12 (stereo partly drawn) | > 100 | > 100 | > 100 | > 100 | > 100 | > 100 | > 100 | – | – | – | – | – | – | – | – | – | – | – | – | – |
| CC1(C)N=C(N)N=C(N)N1c1ccc(CCCCc2ccc(Cl)c(S(=O)(=O)F)c2)c(Cl)c1 | 21.1 | > 39.1 | 20.7 | 27.1 | 3.32 | 22.2 | > 52.5 | 6.56 | 1.71 | 7.98 | 0.769 | 16.5 | 0.31 | 0.117 | 40 | > 100 | 13.9 | 0.527 | 6.79 | 10.4 |
| CCN(CC)CCSc1c2ccccc2nc2c(OC)ccc(OC)c12 | > 23.5 | 17.7 | 51.4 | 48.2 | – | 69.2 | > 70 | – | – | – | – | – | – | – | – | – | – | – | – | – |
| C[C@H](Nc1cc(Cl)nc2c1cnn2[C@@H]1O[C@H](COP(=O)(O)CP(=O)(O)O)[C@@H](O)[C@H]1O)c1ccccc1F | > 100 | > 100 | > 100 | > 100 | – | > 100 | > 100 | > 100 | > 100 | > 100 | > 100 | > 100 | > 100 | > 100 | > 100 | > 100 | > 100 | – | > 100 | > 100 |
| COc1ccc(-c2nsc3c2NC(=O)CC3c2cccc(OC)c2)cc1 (stereo not drawn) | > 100 | > 100 | > 100 | > 100 | > 100 | 7.43 | – | 4.87 | 0.801 | 6.92 | 2.59 | 19.1 | 0.531 | 2.18 | 0.42 | 2.27 | 3.79 | 1.61 | 1.45 | 1.3 |
| CCCCCCCN=C(N)c1ccc(N2CCN(c3ccc(C(N)=NCCCCCCC)cc3)CC2)cc1 | 24.8 | > 72.1 | – | 29.3 | > 100 | > 26.4 | 7.67 | 0.499 | 1.54 | > 52.6 | 0.296 | 21.8 | – | – | 1.38 | > 57.7 | 0.849 | 0.785 | 0.735 | 2.75 |
| COC12OCCN(C)C1=CC(=O)C1=NNC(C)C12 (stereo not drawn) | – | > 100 | > 100 | – | > 100 | > 100 | > 100 | – | – | > 100 | – | – | – | – | – | – | – | – | – | – |
| S=c1[nH]c2c(Cl)c(Cl)c(Cl)c(Cl)c2[nH]1 | 40.7 | 46.8 | 37.8 | 65 | 30.1 | 55.3 | – | – | – | 32.3 | – | > 100 | – | – | – | 46.5 | – | – | – | – |
| O=C1CCC(=O)c2c1c(O)c1ccncc1c2O | 28.6 | 27.9 | 31.6 | 38.2 | 55.5 | 98.8 | 34.7 | – | – | 20.8 | – | – | – | – | – | – | – | – | – | – |
| C[C@H]1CN[C@@H]2[C@@H](C)[C@H]3[C@@H](C[C@H]4[C@@H]5CC[C@H]6C[C@@H](N)CC[C@]6(C)[C@H]5CC[C@]34C)O[C@@]2(O)C1 | 9.3 | 3.14 | 9.66 | 19.6 | – | 19.7 | 9.52 | – | – | 7.69 | – | 16.9 | – | – | – | 5.66 | – | – | – | – |
| [N-]=[N+]=N/C1=C/CCCCC(=O)C1 | – | – | > 100 | > 100 | > 100 | > 100 | > 100 | – | – | > 100 | – | – | – | – | – | – | – | – | – | – |
| CN(C)CCSc1cc(-c2ccccc2)c2ccccc2n1 | 26.7 | 20.4 | 25.5 | 26.2 | > 100 | 15.9 | – | – | – | 4.85 | – | 28.7 | – | – | – | 31.5 | – | – | – | – |
| Cc1ccc(S(=O)OCc2c(C)c(C)c(COS(=O)c3ccc(C)cc3)c(C)c2C)cc1 (stereo not drawn) | > 100 | > 100 | > 100 | > 100 | > 100 | > 100 | > 100 | – | – | > 100 | – | – | – | – | – | – | – | – | – | – |
| COc1cccc2c1C(=O)c1c(O)c3c(c(O)c1C2=O)C[C@@](O)(/C(C)=N/NC(=O)c1ccc(Cl)cc1)C[C@@H]3OC1CC(N)C(O)C(C)O1 (stereo partly drawn) | 1.43 | 1.49 | 2.74 | 3.81 | 1.47 | 13.8 | 0.552 | 0.181 | – | – | 0.271 | 13.5 | 0.147 | 0.138 | 4.6 | 44.3 | 0.379 | 0.216 | 0.481 | 0.102 |
| O=C(Nc1ccc(Cl)c(C(F)(F)F)c1)c1ccc(NC2=C(Cl)C(=O)N(Cc3ccccc3)C2=O)cc1 | 15.2 | 27.2 | 3.92 | – | 6.58 | 60.5 | 33.9 | 4.18 | 19.2 | 56.8 | 2.45 | 6.71 | 13.9 | 1.59 | – | – | – | 2.56 | 26.9 | 13.8 |
| CCOC(=O)c1ccc(N=Nc2cc(C(=O)OCC)ccc2O)cc1 | > 100 | > 100 | > 100 | – | > 100 | > 100 | – | – | – | > 100 | – | – | – | – | – | – | – | – | – | – |
| CSc1ccccc1C#C/C=C\C#Cc1ccccc1N | > 100 | 16.9 | – | 50 | 12.7 | 96.5 | 81 | 20.1 | 13.6 | 29.5 | 15.4 | 45.6 | 4.58 | – | 4.05 | 16 | 19.4 | 2.72 | 31.4 | 36.3 |
| Cn1c2ccccc2c2ncc3[nH]c4ccccc4c3c21 | 54.9 | 26 | 58.2 | 47.8 | 63 | 80.8 | 35.6 | – | – | 39.1 | – | – | – | – | – | – | – | – | – | – |
| COc1ccc(/C(=C\C=C(C#N)C#N)Sc2nc3ccccc3s2)cc1 | – | – | 46.4 | 15.1 | – | 29.5 | – | – | 7.24 | 17.4 | – | – | – | 10 | 3.69 | 12.6 | 7.65 | – | 14.3 | – |
